Laboratory results taken from ChEMBL document CHEMBL3259766, “Design, synthesis and biological evaluation of benzylisoquinoline derivatives as multifunctional agents against Alzheimer's disease” (Bioorg Med Chem Lett, 2014).

Key:
[1] = target: Acetylcholinesterase (Electrophorus electricus, UniProt O42275); experiment: Inhibition of electric eel AChE using acetylthiocholine iodide as substrate preincubated with enzyme for 6 mins followed by substrate addition by Ellman's method
[2] = target: Cholinesterase (Equus caballus, UniProt P81908); experiment: Inhibition of BuChE in equine serum using S-butyrylthiocholine iodide as substrate preincubated with enzyme for 6 mins followed by substrate addition by Ellman's method
[3] = Selectivity index, ratio of IC50 for BuChE in equine serum to IC50 for electric eel AChE
[4] = target: Acetylcholinesterase (Homo sapiens, UniProt P22303); experiment: Inhibition of AChE in human erythrocytes using acetylthiocholine iodide as substrate preincubated with enzyme for 20 mins followed by substrate addition by Ellman's method; format: cell-based
[5] = target: Cholinesterase (Homo sapiens, UniProt P06276); experiment: Inhibition of BuChE in human serum using S-butyrylthiocholine iodide as substrate preincubated with enzyme for 20 mins followed by substrate addition by Ellman's method
[6] = organism: Homo sapiens; experiment: Selectivity index, ratio of IC50 for BuChE in human serum to IC50 for AChE in human erythorcytes; format: cell-based
[7] = target: Amyloid-beta precursor protein (Homo sapiens) (UniProt P05067); experiment: Inhibition of amyloid beta (1 to 42) (unknown origin) self-aggregation at 20 uM after 46 to 48 hrs by thioflavin T based fluorometric assay
[8] = Cytotoxicity against human SH-SY5Y cells assessed as cell viability at 0.1 uM after 24 hrs by MTT assay; format: cell-based; details: read-out: Activity
[9] = Cytotoxicity against human SH-SY5Y cells assessed as cell viability at 0.5 uM after 24 hrs by MTT assay; format: cell-based; details: read-out: Activity
[10] = Cytotoxicity against human SH-SY5Y cells assessed as cell viability at 1 uM after 24 hrs by MTT assay; format: cell-based; details: read-out: Activity
[11] = Cytotoxicity against human SH-SY5Y cells assessed as cell viability at 2 uM after 24 hrs by MTT assay; format: cell-based; details: read-out: Activity
[12] = Cytotoxicity against human SH-SY5Y cells assessed as cell viability at 5 uM after 24 hrs by MTT assay; format: cell-based; details: read-out: Activity
[13] = Cytotoxicity against human SH-SY5Y cells assessed as cell viability at 10 uM after 24 hrs by MTT assay; format: cell-based; details: read-out: Activity

Acetylcholinesterase (Electrophorus electricus, UniProt O42275), sequence (O42275 whole entry): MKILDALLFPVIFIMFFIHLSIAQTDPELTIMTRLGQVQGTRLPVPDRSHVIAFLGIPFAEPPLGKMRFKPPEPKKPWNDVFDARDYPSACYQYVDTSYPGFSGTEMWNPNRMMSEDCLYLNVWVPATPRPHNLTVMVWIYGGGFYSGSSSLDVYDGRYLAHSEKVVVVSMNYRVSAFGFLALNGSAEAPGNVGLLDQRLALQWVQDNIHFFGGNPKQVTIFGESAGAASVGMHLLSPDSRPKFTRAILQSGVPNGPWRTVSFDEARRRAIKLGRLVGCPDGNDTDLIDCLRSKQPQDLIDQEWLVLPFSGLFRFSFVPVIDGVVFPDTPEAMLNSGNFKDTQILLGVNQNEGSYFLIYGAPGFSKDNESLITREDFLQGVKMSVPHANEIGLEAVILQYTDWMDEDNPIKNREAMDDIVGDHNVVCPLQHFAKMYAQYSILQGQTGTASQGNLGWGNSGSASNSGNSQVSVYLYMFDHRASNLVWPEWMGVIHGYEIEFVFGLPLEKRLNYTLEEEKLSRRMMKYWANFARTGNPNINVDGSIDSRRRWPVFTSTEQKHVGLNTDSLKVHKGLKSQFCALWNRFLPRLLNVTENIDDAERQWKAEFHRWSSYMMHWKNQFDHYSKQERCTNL
Cholinesterase (Homo sapiens, UniProt P06276), sequence (P06276 whole entry): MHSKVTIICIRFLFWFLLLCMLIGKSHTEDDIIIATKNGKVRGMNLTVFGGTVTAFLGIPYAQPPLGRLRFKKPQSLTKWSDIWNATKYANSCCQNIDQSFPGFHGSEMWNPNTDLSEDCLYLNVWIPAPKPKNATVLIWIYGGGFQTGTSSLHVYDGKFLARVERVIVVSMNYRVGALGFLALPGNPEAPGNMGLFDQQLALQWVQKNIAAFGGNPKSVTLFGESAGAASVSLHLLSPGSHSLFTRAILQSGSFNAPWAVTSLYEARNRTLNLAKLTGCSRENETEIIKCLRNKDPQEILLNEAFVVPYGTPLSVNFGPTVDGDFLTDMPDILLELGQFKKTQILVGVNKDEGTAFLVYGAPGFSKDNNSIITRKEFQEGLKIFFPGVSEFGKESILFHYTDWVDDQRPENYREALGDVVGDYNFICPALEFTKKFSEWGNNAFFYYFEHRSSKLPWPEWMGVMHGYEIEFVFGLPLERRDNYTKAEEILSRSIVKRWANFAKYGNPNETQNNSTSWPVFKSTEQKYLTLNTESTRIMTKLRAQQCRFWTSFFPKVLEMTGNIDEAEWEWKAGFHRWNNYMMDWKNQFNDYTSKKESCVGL
Amyloid-beta precursor protein (Homo sapiens), sequence (P05067 whole entry): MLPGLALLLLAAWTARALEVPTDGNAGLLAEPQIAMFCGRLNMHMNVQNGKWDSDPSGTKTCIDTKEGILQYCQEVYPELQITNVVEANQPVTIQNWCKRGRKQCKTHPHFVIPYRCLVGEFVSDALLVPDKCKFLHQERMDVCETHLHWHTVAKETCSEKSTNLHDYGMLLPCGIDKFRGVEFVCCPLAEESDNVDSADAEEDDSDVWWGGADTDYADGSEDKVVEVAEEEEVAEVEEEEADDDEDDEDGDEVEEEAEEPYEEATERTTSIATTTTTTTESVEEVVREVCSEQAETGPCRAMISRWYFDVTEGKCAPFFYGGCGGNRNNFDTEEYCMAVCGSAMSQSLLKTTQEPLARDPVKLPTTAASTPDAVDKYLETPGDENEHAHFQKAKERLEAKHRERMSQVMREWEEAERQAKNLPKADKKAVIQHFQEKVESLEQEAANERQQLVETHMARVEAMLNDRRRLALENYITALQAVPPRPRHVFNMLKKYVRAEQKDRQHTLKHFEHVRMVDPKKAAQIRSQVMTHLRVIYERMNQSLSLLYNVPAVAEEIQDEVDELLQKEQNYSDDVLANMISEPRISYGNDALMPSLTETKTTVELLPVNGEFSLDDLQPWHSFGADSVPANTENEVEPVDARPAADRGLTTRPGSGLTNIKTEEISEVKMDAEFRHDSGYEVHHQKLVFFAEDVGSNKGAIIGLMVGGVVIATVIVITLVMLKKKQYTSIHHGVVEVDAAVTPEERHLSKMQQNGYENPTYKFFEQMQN
Acetylcholinesterase (Homo sapiens, UniProt P22303), sequence (P22303 whole entry): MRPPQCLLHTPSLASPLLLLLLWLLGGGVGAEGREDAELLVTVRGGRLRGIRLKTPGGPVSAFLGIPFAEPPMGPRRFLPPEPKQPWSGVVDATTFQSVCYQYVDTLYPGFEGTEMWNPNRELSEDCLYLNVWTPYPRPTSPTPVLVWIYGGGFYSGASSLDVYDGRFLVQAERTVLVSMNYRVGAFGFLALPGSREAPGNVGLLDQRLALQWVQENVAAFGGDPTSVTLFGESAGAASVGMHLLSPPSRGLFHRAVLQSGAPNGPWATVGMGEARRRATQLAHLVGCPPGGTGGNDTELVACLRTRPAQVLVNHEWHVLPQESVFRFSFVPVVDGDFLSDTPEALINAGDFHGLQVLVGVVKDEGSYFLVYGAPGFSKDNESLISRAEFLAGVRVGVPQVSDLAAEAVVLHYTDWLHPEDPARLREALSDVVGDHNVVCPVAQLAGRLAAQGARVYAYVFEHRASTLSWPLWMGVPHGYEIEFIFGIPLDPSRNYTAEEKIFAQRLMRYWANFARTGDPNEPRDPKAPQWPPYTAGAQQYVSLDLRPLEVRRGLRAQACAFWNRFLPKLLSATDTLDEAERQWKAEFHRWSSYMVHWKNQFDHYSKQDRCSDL
Cholinesterase (Equus caballus, UniProt P81908), sequence (P81908 whole entry): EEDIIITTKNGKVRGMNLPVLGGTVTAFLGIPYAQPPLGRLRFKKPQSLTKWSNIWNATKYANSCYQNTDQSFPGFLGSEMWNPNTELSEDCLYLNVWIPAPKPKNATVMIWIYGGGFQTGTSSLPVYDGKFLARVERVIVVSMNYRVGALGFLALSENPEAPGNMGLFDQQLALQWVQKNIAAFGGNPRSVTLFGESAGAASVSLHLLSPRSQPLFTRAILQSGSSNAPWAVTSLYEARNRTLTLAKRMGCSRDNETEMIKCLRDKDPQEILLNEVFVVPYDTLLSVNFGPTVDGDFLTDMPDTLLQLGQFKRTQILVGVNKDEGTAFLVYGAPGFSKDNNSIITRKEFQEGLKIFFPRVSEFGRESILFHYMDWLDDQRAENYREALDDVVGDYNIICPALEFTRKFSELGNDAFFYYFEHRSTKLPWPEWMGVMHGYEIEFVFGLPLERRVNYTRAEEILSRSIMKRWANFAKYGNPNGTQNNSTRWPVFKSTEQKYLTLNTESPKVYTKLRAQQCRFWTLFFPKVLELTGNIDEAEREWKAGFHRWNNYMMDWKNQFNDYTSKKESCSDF

Row | Structure (SMILES) | IC50 [1] [µM] | IC50 [2] [µM] | Ratio IC50 [3] | IC50 [4] [µM] | IC50 [5] [µM] | Ratio IC50 [6] | inhibition [7] [%] | viability at 24 h, 0.1 µM [8] [%] | viability at 24 h, 0.5 µM [9] [%] | viability at 24 h, 1 µM [10] [%] | viability at 24 h, 2 µM [11] [%] | viability at 24 h, 5 µM [12] [%] | viability at 24 h, 10 µM [13] [%]
1 | COc1cc2c(cc1OC)C(Cc1ccc(OCCCCCCN3CCCC3)cc1)NCC2 (configuration not stated) | 1.28 | 2.34 | 2.05 | 2.98 | 2.27 | 0.76 | 69 |  |  |  |  |  | 
2 | CCN(CC)CCCCOc1ccc(CC2NCCc3cc(OC)c(OC)cc32)cc1 (configuration not stated) | 7.58 | 15.3 | 2.02 |  |  |  | 47.3 |  |  |  |  |  | 
3 | CCCN(CCC)CCCCCCOc1ccc(CC2NCCc3cc(OC)c(OC)cc32)cc1 (configuration not stated) | 3.01 | 4.32 | 1.44 | 3.46 | 11.2 | 3.23 | 51.2 |  |  |  |  |  | 
4 | COc1cc2c(cc1OC)C(Cc1ccc(OCCCCCCN3CCCC3C)cc1)NCC2 (configuration not stated) | 1.34 | 3.35 | 2.5 | 4.5 | 6.42 | 1.43 | 72.3 |  |  |  |  |  | 
5 | COc1cc2c(cc1OC)C(Cc1ccc(OCCCCCCN3CCN(Cc4ccccc4)CC3)cc1)NCC2 (configuration not stated) | 53.5 | 10.5 | 0.2 | 5.59 | 21.7 | 3.88 | 61.4 |  |  |  |  |  | 
6 | COc1cc2c(cc1OC)C(Cc1ccc(OCCCCCCN3CCCCC3C)cc1)NCC2 (configuration not stated) | 0.95 | 3.13 | 3.29 | 2.2 | 5.83 | 1.49 | 78.4 | 96.8 | 98.8 | 96.8 | 96.1 | 94.5 | 91.1
7 | COc1cc2c(cc1OC)C(Cc1ccc(O)cc1)NCC2 (configuration not stated) | > 100 | 39.7 |  | > 100 | 46.8 |  | 36 |  |  |  |  |  | 
8 | COc1cc2c(cc1OC)C(Cc1ccc(OCCCCCCN3CCC(O)(Cc4ccccc4)CC3)cc1)NCC2 (configuration not stated) | 41.7 | 12.8 | 0.31 | 39.6 | 15.9 | 0.4 | 62.7 |  |  |  |  |  | 
9 | CCN(CC)CCCCCCCCOc1ccc(CC2NCCc3cc(OC)c(OC)cc32)cc1 (configuration not stated) | 6.33 | 20.1 | 3.17 |  |  |  | 39.6 |  |  |  |  |  | 
10 | COc1cc2c(cc1OC)C(Cc1ccc(OCCCCCCN(C)C)cc1)NCC2 (configuration not stated) | 3.14 | 8.65 | 2.75 | 7.13 | 3.43 | 0.48 | 55.3 |  |  |  |  |  | 
11 | COc1cc2c(cc1OC)C(Cc1ccc(OCCCCCCN3CCC(c4ccccc4)CC3)cc1)NCC2 (configuration not stated) | 6.69 | 7.99 | 1.19 | 9.33 | 9.29 |  | 61.2 |  |  |  |  |  | 
12 | CCN(CC)CCCCCOc1ccc(CC2NCCc3cc(OC)c(OC)cc32)cc1 (configuration not stated) | 7.02 | 10.3 | 1.46 |  |  |  | 34.3 |  |  |  |  |  | 
13 | CCN(CC)CCCCCCCOc1ccc(CC2NCCc3cc(OC)c(OC)cc32)cc1 (configuration not stated) | 4.67 | 9.13 | 1.96 |  |  |  | 43.9 |  |  |  |  |  | 
14 | COc1cc2c(cc1OC)C(Cc1ccc(OCCCCCCN3CCN(c4ccccc4)CC3)cc1)NCC2 (configuration not stated) | 17.1 | 8.78 | 0.51 | 16.3 | 12.9 |  | 65.8 |  |  |  |  |  | 
15 | CCN(CC)CCCOc1ccc(CC2NCCc3cc(OC)c(OC)cc32)cc1 (configuration not stated) | 13.2 | 20.8 | 1.57 |  |  |  | 41.1 |  |  |  |  |  | 
16 | CCCCN(CCCC)CCCCCCOc1ccc(CC2NCCc3cc(OC)c(OC)cc32)cc1 (configuration not stated) | 3.43 | 3.46 | 1.01 | 3.85 | 6.02 | 1.56 | 51.4 |  |  |  |  |  | 
17 | COc1cc2c(cc1OC)C(Cc1ccc(OCCCCCCN3CCC(O)CC3)cc1)NCC2 (configuration not stated) | 13.3 | 14.2 | 1.07 | 9.59 | 23.7 | 2.47 | 62.1 |  |  |  |  |  | 
18 | CCN(CC)CCCCCCOc1ccc(CC2NCCc3cc(OC)c(OC)cc32)cc1 (configuration not stated) | 2.28 | 4.95 | 2.17 | 4.99 | 16.7 | 3.35 | 56.4 |  |  |  |  |  | 
19 | COc1cc2c(cc1OC)C(Cc1ccc(OCCCCCCN3CCCCC3)cc1)NCC2 (configuration not stated) | 1.14 | 2.51 | 1.96 | 2.14 | 3.25 | 1.69 | 76.4 |  |  |  |  |  | 
20 | COc1cc2c(cc1OC)C(Cc1ccc(OCCCCCCN3CCOCC3)cc1)NCC2 (configuration not stated) | 28.6 | 13 | 0.45 | 35.5 | 10.6 | 0.29 | 57.4 |  |  |  |  |  | 
